In article doi:10.1101/2020.02.07.939504v1 (biorxiv, 2020):
Like-named read-outs stand apart in the source and are kept apart here.

Legend:
[1] = biological target: iAChSnFR0.4; experiment: fluorescence titration of purified sensor; format: binding, Thermoanaerobacter sp.; details: read-out: apparent Kd; 200 nM purified sensor
[2] = biological target: X513-OpuBC; experiment: isothermal titration calorimetry; format: binding, Thermoanaerobacter sp. X513; details: 25 °C, PBS, single experiment
[3] = biological target: y-iAChSnFR; details: 200 nM purified sensor
[4] = biological target: iAChSnFR (iAChSnFR0.9); details: 200 nM soluble purified sensor

| SMILES | Kd [1] [µM] | Kd ([2]; fit with fixed N = 1) [µM] | Kd [3] [µM] | Kd ([4]; read-out: apparent Kd) [µM] | Kd ([2]; variable stoichiometry fit, N = 0.55) [µM] | Kd ([4]; read-out: affinity) [µM] |
| --- | --- | --- | --- | --- | --- | --- |
| CC(=O)OCC[N+](C)(C)C [acetylcholine] | 220 ± 16 | 95 | 0.5 | 1.3 ± 1 | – | – |
| C[N+](C)(C)CCO [choline] | – | – | 20 | 45 ± 1.1 | 8 | – |
| NCCc1c[nH]c2ccc(O)cc12 [serotonin] | – | – | – | – | – | > 1000 |
